Reference: patent US20260185163A1, “MEN1 MUTATIONS AND USES THEREOF” (DANA-FARBER CANCER INSTITUTE, INC., priority 2022, published 2026)

Key:
[1] = system: M327I- and T349M-mutant OCI-AML3 cells; assay: dose-response assay, viable cell counts by flow cytometry; format: cell-based, human
Procedure: (§1) MV4;11 and OCI-AML3 cell lines were passaged 24 h prior to nucleofection. The guide RNA (150 μmol) (sequence: 5′-[…]-3′) was added to Alt-R S.p. HiFi Cas9 nuclease (Integrated DNA Technologies) (125 μmol) followed by an incubation at room temperature (RT) for 20 min to allow formation of ribonucleoprotein (RNP) complexes. 2×10^5 cells were sedimented at 200 g for 10 min at RT, washed with PBS and resuspended in the SG Cell Line Nucleofector™ Solution (Lonza). Cells, Alt-R™ Cas9 Electroporation Enhancer (Lonza) (120 μmol) and the HDR donor oligonucleotide containing the MEN1-M327I mutation as well as a silent mutation at the protospacer adjacent motif (PAM) site (120 μmol) (sequence:5′-[…]-3′) were added to the RNP complex. For wildtype (WT) control, phosphate buffered saline (PBS) (Gibco™, Fisher Scientific) was added to the resuspended cells. Nucleofection was performed using a 16-well 20 μl Nucleocuvette™ stripe (Lonza) in a 4D-Nucleofector™ X Unit (Lonza) (program FF-100). Cells were incubated overnight in RPMI-1640+10% FCS+1% P/S containing 1 μM Alt-R™ HDR enhancer V2 (Lonza) (or DMSO for WT control). The following day, the medium was replaced by RPMI-1640+10% FBS+1% P/S. Single clones were selected in methylcellulose (MethoCult™ M3234, Stemcell™ Technologies) supplemented with 10% RPMI-1640, 10% FBS, 1% P/S and 25 nM SNDX-5613 (or DMSO for WT control), starting 3 days after nucleofection, and expanded in RPMI-1640+10% FCS+1% P/S supplemented with 25 nM SNDX-5613 (or DMSO for WT control). For the in vitro clonal selection assay of bulk nucleofected cells over time, 5×10^3 cells (3 replicates per condition) were seeded in RPMI-1640+10% FBS+1% P/S supplemented with 50 nM SNDX-5613 (or DMSO for WT control) 3 days after nucleofection. Cells were replated in fresh medium+drug every 3 days and viable cells were counted using the LSRFortessa™ (BD Biosciences) flow cytometer. Cumulative cell growth was calculated over 28 days. At each timepoint, cell pellets were frozen and genomic DNA was extracted subsequently using the DNeasy Blood and Tissue Kit™ (QIAGEN). Digital droplet-based PCR was performed from the genomic DNA to assess editing efficiency in the bulk cells over time. To analyze HDR efficiency in single cell clones, genomic DNA was PCR amplified using the Q5 High-Fidelity 2× Master Mix™ (New England BioLabs) and primers (forward: 5′-[…]-3′; reverse: 5′-[…]-3′), and the resulting 641 bp fragment containing the Cas9 cut site was gel-purified using the QIAquick Gel Extraction Kit™ (QIAGEN). Sanger sequencing was used to analyze HDR efficiency (primer 5′-[…]-3′).
(§2) To determine Menin-inhibitor responses of MOLM13, MV4;11 or OCI-AML3 cell lines expressing MEN1 mutants, 3×10^3 cells were plated per well in a non-tissue culture treated 96-well plate. The Menin-inhibitors were titrated on these cells in the following dose-range: DMSO, 3.9 nM, 7.813 nM, 15.625 nM, […], 62.5 nM, 125 nM, 250 nM, 500 nM, 1000 nM. Cells were treated in triplicates on each plate and the experiment was repeated 4 times. After 6 days, cells were split 1:7 and counts of viable cells in each well were determined after 10 d of treatment by flow cytometry (LSRFortessa™ with High-throughput sampler (HTS), BD Biosciences). Relative cell counts were calculated as % of DMSO control. The average of each triplicate was calculated and the mean of all replicates was plotted. Error bars represent the standard error of means (SEM).

[2] = system: M327I- and T349M-mutant MV4;11 cells; assay: as above; format: cell-based, human
Procedure: as §1, §2

SMILES | sensitivity [1] | sensitivity [2]
CNc1nc(NC2CCN(Cc3ccc4c(cc(C#N)n4CC45CC(NC=O)(C4)C5)c3C)CC2)c2cc(CC(F)(F)F)sc2n1 [MI-3454] | reduced sensitivity | reduced sensitivity
CCN(C(=O)c1cc(F)ccc1Oc1cncnc1N1CC2(CCN(C[C@H]3CC[C@H](NS(=O)(=O)CC)CC3)CC2)C1)C(C)C [SNDX-5613, revumenib] | reduced sensitivity | reduced sensitivity
